Data: ChEMBL document CHEMBL1201862, “PubChem BioAssay data set” (2004)
Counter-ions that a name gives are not always drawn. Calls of active or inactive are those of the source.

Key:
[1] = CellTiter-Glo luminescence survival assay, SW480 colon tumor line, concentration-response curve, half-maximal inhibitory concentration (AID 1117338); assay type: functional
[2] = RKO cell viability reduction, dose response, CellTiter-Glo luminescence (AID 1117322); assay type: functional
[3] = cytotoxicity toward HCT116 cells – cell-based, CellTiter-Glo luminescence, IC50, dose response (AID 1117332); assay type: functional; conditions: HCT-116
[4] = cytotoxicity toward Colo320 cells – cell-based, CellTiter-Glo luminescence, IC50, dose response (AID 1117334); assay type: functional; conditions: COLO 320
[5] = cytotoxicity toward HT-29 cells – cell-based, CellTiter-Glo luminescence, IC50, dose response (AID 1117330); assay type: functional
[6] = Reduced DLD-1 viability, concentration-response, CellTiter-Glo luminescence (AID 1117352); assay type: functional
[7] = Trypanosoma cruzi growth suppression in host cells – NIH3T3 host cells, beta-gal luminescence, confirmation (AID 2044); assay type: functional, cell-based;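 note: intracellular parasites grown in NIH/3T3 mouse fibroblasts as host cells; luminescent beta-galactosidase reporter signal from transgenic T. cruzi replicating inside host cells; inhibitors lower the luminescence signal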
[8] = NIH3T3 cell viability loss – ATP luminescence, mouse fibroblasts, counter-screen, dose response (AID 2010); assay type: functional, cell-based;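 note: cells exposed to compound for about 90 hours before reading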
cells [9] = assay: cells
Estrogen receptor = target: T1, Estrogen receptor (Homo sapiens, UniProt P03372);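 note: potency for inhibiting coactivator peptide recruitment to the receptor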
T1 sequence (P03372 whole entry): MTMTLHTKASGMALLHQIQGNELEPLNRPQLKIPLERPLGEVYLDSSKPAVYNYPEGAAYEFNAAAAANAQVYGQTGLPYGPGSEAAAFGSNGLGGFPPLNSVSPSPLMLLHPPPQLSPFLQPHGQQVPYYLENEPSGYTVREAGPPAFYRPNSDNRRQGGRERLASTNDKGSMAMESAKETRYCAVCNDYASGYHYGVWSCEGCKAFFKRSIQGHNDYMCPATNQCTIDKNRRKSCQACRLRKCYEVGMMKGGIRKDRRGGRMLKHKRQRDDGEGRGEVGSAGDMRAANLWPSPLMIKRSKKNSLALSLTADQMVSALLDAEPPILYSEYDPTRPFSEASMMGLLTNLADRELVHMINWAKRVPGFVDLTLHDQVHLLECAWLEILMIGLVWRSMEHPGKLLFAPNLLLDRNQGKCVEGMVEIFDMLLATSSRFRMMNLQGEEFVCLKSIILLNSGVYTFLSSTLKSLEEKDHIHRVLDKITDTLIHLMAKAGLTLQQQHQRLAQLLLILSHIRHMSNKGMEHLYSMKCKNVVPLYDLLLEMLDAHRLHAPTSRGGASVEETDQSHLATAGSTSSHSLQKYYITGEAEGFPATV

cells [10] = assay: cells; remark: listed apart in the source
[11] = Luminescence Cell-Based Dose Retest to Confirm Inhibitors of Cancer Stem Cells. [Related pubchem assays (depositor defined):AID2717, AID2721]; assay type: functional; conditions: Homo sapiens
[12] = viability loss in THP-1 monocytes – THP-1 cells, cytotoxicity control for Vif-APOBEC3G degradation inhibitor project, dose response (AID 1117359); assay type: functional; conditions: THP-1
Large T antigen = Large T antigen (Simian virus 40, UniProt P03070); assay type: functional, Betapolyomavirus macacae;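 note: Confirmatory-stage PubChem screen for compounds that inhibit SV40 T antigen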
Chain of Large T antigen (P03070 whole entry): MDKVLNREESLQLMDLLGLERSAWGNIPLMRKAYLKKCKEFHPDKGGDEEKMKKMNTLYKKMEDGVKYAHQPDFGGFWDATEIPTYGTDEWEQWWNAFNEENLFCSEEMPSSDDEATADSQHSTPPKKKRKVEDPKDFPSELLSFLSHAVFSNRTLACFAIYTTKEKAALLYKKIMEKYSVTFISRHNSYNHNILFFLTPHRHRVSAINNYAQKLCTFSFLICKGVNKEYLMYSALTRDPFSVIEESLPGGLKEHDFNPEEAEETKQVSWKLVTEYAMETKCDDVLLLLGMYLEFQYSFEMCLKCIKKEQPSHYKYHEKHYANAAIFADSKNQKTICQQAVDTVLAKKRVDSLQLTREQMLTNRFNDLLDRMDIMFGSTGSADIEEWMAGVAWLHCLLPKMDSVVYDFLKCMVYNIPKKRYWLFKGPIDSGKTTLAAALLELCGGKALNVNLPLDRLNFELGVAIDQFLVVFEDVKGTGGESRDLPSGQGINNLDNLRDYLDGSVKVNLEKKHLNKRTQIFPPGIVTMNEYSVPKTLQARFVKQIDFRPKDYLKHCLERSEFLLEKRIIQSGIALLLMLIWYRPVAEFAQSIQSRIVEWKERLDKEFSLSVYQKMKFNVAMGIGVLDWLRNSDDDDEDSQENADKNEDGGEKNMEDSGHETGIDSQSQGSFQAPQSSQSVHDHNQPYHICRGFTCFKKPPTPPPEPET

[13] = target: T2, Mannose-6-phosphate isomerase (Homo sapiens, UniProt P34949); assay: MPI enzyme activity inhibition – biochemical, fluorescence intensity, coupled assay, primary screen (AID 1209)
T2 sequence (P34949 whole entry): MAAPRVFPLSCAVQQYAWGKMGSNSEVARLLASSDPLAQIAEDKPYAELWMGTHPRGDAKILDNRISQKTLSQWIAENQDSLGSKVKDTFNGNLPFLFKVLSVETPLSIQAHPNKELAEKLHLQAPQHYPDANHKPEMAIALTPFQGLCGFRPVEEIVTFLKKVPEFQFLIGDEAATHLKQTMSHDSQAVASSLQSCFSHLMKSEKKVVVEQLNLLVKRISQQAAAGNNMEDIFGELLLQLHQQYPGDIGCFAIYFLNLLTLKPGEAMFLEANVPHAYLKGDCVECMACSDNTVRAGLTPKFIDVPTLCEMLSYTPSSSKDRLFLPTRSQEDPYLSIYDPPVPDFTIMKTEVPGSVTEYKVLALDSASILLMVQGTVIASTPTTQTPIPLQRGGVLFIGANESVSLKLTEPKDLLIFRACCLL

[14] = target: Sphingosine 1-phosphate receptor 2 (Homo sapiens, UniProt O95136); assay: Dose Response Cell Based Assay for Antagonists of the S1P2 Receptor. [Related pubchem assays: 856, 736 ]; assay type: functional
Chain of Sphingosine 1-phosphate receptor 2 (O95136 whole entry): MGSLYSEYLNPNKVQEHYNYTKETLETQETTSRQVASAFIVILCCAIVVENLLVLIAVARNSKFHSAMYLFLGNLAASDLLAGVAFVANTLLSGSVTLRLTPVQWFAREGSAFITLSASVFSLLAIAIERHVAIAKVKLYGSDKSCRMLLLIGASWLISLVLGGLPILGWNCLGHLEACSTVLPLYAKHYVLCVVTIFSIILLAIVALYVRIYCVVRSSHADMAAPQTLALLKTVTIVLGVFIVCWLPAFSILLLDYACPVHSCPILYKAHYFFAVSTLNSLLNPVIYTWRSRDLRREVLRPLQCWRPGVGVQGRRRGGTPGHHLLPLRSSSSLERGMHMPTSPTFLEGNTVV

BJ [15] = assay: BJ-TERT fibroblast viability loss – cell-based, RAS-independent, luminescence, dose response (AID 1933); assay type: functional; conditions: Homo sapiens
BJ [16] = assay: cells; assay type: functional, cell-based; conditions: Homo sapiens
[17] = microbe, parasite or virus in culture; assay type: functional; conditions: Mycobacterium tuberculosis
[18] = viability of PTEN-deleted HCT116 cells – cell-based, HCT116 PTEN knockout, dose response (AID 1047); assay type: functional;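 note: HCT116 colon tumor cells with PTEN knocked out; cells exposed to compound for 60 hours before readout; potency for loss of cell viability measured by luminescence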
[19] = target: T3, Calpain-2 catalytic subunit (Sus scrofa, UniProt P43367); assay: m-calpain protease blockers, concentration series – biochemical, fluorogenic peptide substrate, dose response (AID 1420); assay type: functional
T3 sequence (P43367 whole entry): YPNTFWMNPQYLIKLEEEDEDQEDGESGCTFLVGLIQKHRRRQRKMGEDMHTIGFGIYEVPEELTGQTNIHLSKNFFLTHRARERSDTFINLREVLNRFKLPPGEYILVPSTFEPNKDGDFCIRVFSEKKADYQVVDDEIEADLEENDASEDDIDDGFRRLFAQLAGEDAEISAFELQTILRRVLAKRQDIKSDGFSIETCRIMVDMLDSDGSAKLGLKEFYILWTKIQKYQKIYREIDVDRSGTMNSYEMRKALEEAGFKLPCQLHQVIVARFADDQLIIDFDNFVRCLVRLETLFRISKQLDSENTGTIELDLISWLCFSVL

[20] = viability of HCT116 lacking mutant beta-catenin – cell-based, human colon tumor, dose response (AID 1045); assay type: functional;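 note: HCT116 colon tumor cells with beta catenin knocked out; cells exposed to compound for 60 hours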
BJ [21] = assay: BJ-TERT-LT-ST fibroblast viability loss – cell-based, RAS-independent, luminescence, dose response (AID 1935); assay type: functional; conditions: Homo sapiens;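 note: BJ fibroblasts immortalized with TERT plus LT and ST oncogenes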
[22] = DRD fibroblast viability loss – cell-based, non-viral oncogenic, luminescence, dose response (AID 1934); assay type: functional; conditions: Homo sapiens
[23] = target: Voltage-dependent T-type calcium channel subunit alpha-1H (Homo sapiens, UniProt O95180); assay type: functional;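 note: channel activity triggered by adding a high calcium stimulation buffer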
Chain of Voltage-dependent T-type calcium channel subunit alpha-1H (O95180 whole entry): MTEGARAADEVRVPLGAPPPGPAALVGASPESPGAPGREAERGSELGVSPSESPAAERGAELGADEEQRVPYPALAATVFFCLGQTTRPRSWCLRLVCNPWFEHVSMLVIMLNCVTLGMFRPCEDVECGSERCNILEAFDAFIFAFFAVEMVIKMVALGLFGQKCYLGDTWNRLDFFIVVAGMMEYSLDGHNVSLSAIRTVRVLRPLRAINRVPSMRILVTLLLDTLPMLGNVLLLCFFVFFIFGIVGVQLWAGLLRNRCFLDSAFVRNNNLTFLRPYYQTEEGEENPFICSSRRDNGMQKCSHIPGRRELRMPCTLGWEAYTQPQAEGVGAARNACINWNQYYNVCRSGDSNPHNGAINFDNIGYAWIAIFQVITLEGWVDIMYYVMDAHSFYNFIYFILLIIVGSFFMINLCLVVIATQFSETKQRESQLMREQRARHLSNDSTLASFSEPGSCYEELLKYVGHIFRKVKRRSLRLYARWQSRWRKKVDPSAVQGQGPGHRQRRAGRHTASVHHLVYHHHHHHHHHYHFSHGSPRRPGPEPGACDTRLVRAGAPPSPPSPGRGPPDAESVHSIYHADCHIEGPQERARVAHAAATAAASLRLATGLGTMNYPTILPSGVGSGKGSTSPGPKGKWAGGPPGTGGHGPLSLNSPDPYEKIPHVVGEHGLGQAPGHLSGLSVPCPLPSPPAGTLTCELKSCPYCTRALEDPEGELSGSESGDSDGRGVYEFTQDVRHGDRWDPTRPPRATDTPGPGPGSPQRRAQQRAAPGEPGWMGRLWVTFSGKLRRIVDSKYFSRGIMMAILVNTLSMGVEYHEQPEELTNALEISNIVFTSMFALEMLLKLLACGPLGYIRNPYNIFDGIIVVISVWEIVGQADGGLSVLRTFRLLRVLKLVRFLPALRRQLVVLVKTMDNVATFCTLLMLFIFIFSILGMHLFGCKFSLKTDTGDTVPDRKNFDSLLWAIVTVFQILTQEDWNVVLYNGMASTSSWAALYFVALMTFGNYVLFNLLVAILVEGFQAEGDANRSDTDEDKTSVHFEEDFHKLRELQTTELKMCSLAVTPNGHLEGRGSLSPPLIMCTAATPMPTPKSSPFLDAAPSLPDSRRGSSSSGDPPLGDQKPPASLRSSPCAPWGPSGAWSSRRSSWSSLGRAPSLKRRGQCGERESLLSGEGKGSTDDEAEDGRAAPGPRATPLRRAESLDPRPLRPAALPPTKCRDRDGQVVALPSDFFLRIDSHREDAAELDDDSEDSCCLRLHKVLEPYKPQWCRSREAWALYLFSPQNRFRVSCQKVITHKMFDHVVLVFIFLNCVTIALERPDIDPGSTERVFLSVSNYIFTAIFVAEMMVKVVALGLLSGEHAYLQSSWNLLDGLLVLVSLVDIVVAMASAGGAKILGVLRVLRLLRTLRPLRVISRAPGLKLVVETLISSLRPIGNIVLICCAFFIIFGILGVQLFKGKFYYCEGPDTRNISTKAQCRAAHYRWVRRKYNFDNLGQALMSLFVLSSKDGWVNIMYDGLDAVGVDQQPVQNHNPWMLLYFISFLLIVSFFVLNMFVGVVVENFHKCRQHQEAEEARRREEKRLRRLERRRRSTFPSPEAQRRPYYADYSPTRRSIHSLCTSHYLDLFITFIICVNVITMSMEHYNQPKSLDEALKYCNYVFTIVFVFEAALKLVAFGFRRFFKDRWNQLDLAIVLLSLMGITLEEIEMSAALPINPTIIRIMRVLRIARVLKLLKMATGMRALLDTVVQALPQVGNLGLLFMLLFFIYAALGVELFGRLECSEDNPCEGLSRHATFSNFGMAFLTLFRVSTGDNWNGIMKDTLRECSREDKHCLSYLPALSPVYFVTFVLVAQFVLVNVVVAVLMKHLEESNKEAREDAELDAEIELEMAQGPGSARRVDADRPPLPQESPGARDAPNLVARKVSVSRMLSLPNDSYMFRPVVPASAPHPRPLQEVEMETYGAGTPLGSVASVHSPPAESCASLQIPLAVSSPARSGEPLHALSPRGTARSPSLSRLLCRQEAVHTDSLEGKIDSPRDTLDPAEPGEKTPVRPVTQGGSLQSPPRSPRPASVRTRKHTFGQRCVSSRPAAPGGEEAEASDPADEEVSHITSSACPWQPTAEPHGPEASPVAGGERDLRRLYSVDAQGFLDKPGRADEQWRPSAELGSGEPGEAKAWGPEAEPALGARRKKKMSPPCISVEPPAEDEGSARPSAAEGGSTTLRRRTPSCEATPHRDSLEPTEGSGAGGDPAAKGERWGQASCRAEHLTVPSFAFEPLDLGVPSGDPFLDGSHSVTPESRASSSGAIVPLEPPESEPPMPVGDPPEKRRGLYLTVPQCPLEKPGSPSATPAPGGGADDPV

Jurkat = assay: blockers of NF-kB activation in T cells – Jurkat, luciferase reporter, luminescence, B- and T-cell, dose response (AID 489004); assay type: functional, cell-based; conditions: Homo sapiens;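 note: NF-kB luciferase reporter Jurkat cells stimulated with PMA plus ionomycin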
[24] = HEK-293T viability loss, compound-treated – cell-based, uHTS hits, cytotoxicity control for B/T-cell NF-kB inhibitor project, dose response (AID 489019); assay type: functional;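 note: IC50 reflects cytotoxicity as loss of cell viability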
INS1 = assay: INS-1E survival protection against cytokine death – cell-based, luminescence, retest, dose response (AID 449756); assay type: functional; conditions: Rattus norvegicus;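 note: cell death triggered by IL-1 beta plus TNF-alpha plus IFN-gamma mixture; protective hits raise ATP signal compared with cytokine alone wells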
[25] = reduction of Shn3 3'UTR-driven luciferase in osteoblasts – cell-based, Clone20 osteoblasts, firefly luciferase, cherry-picked, dose response (AID 624132); assay type: functional;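 note: firefly luciferase luminescence from reporter carrying the Shn3 3'UTR in osteoblasts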
[26] = loss of viability in HepG2 cells – cell-based, CellTiter-Glo, cherry-picked, cytotoxicity control for Shn3 inhibitor project, dose response (AID 624134); assay type: functional
[27] = non-specific 3'UTR reporter inhibition in Clone20-Shn3RL – cell-based, Renilla luciferase, cherry-picked, counter-screen for Shn3 inhibitor project, dose response (AID 624133); assay type: functional

CC(C)(C)NCC(O)c1cc(O)cc(O)c1 (centres undefined) [TERBUTALINE SULFATE]
IC50 [1]: > 20 µM (inactive) | IC50 [2]: > 20 µM (inactive) | IC50 [3]: > 20 µM (inactive) | IC50 [4]: > 20 µM (inactive) | IC50 [5]: > 20 µM (inactive) | IC50 [6]: > 20 µM (inactive)

C/C(N)=C(/C#N)C(=O)CSc1cc(C)c2cc(C)cc(C)c2n1
EC50 [7]: 4.13 µM (active) | EC50 [8]: > 60 µM (not active) | IC50 (cells [9]): 12 µM (active)

COc1ccc(Cl)cc1NC(=O)c1oc(C)nc1C
IC50 (Estrogen receptor): > 50 µM (not active)

COc1cc(CN(C)CCc2ccccc2)ccc1OCc1ccccc1
EC50 [7]: < 0.1 µM (active) | EC50 [8]: 19.1 µM (active) | EC50 (cells [10]): 6 nM (active)

Cc1ccc(/C=N/c2ccccc2C(N)=O)s1
AC50 [11]: 2.44 µM (active) | CC50 [12]: 2.54 µM (active)

COc1ccccc1N1CCN(/N=C/c2ccc(O)c(O)c2)CC1
IC50 (Large T antigen): 15 µM (active) | IC50 [13]: > 50 µM (not active)

Cc1n[nH]c(C)c1N1C(=O)c2cccc3c(Br)ccc(c23)C1=O
IC50 [14]: > 75.5 µM (not active)

N#CC(c1cccc(Cl)c1)c1ccc2c(C(F)(F)F)cc(C(F)(F)F)nc2n1 (centres undefined)
IC50 [14]: 0.922 µM (active) | EC50 (BJ [15]): 2.77 µM (active) | EC50 (BJ [16]): 3.68 µM (inconclusive) | CC50 [17]: < 160 nM (active) | EC50 [18]: 235 nM (active) | IC50 [19]: 6.77 µM (not active) | EC50 [20]: 267 nM (active) | EC50 (BJ [21]): 6.56 µM (active) | EC50 [22]: 3.04 µM (active) | EC50 [23]: 3.85 µM (active) | IC50 (Jurkat): 34.5 µM (inactive) | IC50 [24]: > 80 µM (inactive) | AC50 (INS1): 881 nM (active) | AC50 [25]: 689 nM (active) | AC50 [26]: 805 nM (active) | AC50 [27]: 540 nM (active)
